# From BindingDB's records for patent US20240190862 (Amgen, 2024)
# How the values were obtained:
# [1] = molecular target: T1, GTPase KRas [1-169,G12C,C118A] (Homo sapiens, UniProt P01116, C118A/G12C); assay: Coupled Nucleotide Exchange Assay (20 hours)
# T1 construct: 1-169
# Experimental: (§1) Purified GDP-bound KRAS protein (aa 1-169), containing either G12C or G12D, as well as C118A amino acid substitutions and an N-terminal His-tag, was pre-incubated in assay buffer (25 mM HEPES pH 7.4, 10 mM MgCl2, and 0.01% Triton X-100) with a compound dose-response titration for 20 hours. Following compound pre-incubation, purified SOS protein (aa 564-1049) and GTP (Roche 10106399001) were added to the assay wells and incubated for an additional 30 min. To determine the extent of inhibition of SOS-mediated nucleotide exchange, purified GST-tagged cRAF (aa 1-149), nickel chelate AlphaLISA acceptor beads (PerkinElmer AL108R), and AlphaScreen glutathione donor beads (PerkinElmer 6765302) were added to the assay wells and incubated for 10 minutes. The assay plates were then read on a PerkinElmer EnVision Multilabel Reader, using AlphaScreen technology, and data were analyzed using a 4-parameter logistic model to calculate IC50 values.
# [2] = molecular target: GTPase KRas [G12D,C118A] (Homo sapiens, UniProt P01116, C118A/G12D); assay: Coupled Nucleotide Exchange Assay (20 hours)
# Chain of GTPase KRas [G12D,C118A] (P01116 whole entry G12D/C118A, looked up): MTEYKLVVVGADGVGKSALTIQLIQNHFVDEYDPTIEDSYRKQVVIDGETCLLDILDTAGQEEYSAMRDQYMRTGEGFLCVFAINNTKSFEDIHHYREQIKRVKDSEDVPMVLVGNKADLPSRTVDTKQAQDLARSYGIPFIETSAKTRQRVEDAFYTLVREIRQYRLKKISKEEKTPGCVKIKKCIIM
# Experimental: as §1
# [3] = molecular target: T1, GTPase KRas [1-169,G12C,C118A]; assay: Coupled Nucleotide Exchange Assay (5min)
# Experimental: as §1, with “either 5 min.” for “20 hours.”
# T1 sequence (P01116 1-169 G12C/C118A): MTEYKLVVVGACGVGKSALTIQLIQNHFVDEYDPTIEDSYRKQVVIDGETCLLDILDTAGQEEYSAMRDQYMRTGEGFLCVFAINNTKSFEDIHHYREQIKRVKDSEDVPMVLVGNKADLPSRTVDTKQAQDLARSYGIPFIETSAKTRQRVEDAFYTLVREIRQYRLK
SMILES,IC50 [1] [µM],IC50 [2] [µM],IC50 [3] [µM]
"CC(=O)C(=O)N1CCN(c2nc(=O)n(-c3c(C)ccnc3C(C)C)c3nc(-c4ccccc4F)c(Cl)cc23)[C@@H](C)C1 [US20240190862, Example 3]",31.3,> 250,–
"Cc1ccnc(C(C)C)c1-n1c(=O)nc(N2CCN(C(=O)COc3c(F)cccc3F)C[C@@H]2C)c2cc(Cl)c(-c3ccccc3F)nc21 [US20240190862, Example 8]",24,> 250,–
"Cc1ccnc(C(C)C)c1-n1c(=O)nc(N2CCN(C(=O)C=[N+]=[N-])C[C@@H]2C)c2cc(Cl)c(-c3ccccc3F)nc21 [US20240190862, Example 13]",0.54,> 250,8.59
"Cc1ccnc(C(C)C)c1-n1c(=O)nc(N2CCN(C(=O)C=O)C[C@@H]2C)c2cc(Cl)c(-c3ccccc3F)nc21 [US20240190862, Example 4]",0.039,> 250,0.61
